Here are results for 22 compounds from patent US10399989B2, “Pyrazolopyrimidine derivatives as BTK inhibitors for the treatment of cancer” (Loxo Oncology, Inc., priority 2016, dated 2019).

Read-outs that look alike come from different tables or passages of the source. Where only a bound is given, the exact number is not on record here.

One assay has as its target BTK^C481S (Homo sapiens (Human), UniProt Q06187, C481S). The assay is described as follows: BTK^C481S binding affinity (TR-FRET, LanthaScreen). Particulars: 5 h incubation. As to the method:
(§1) BTK^C481S binding affinity of each compound tested was determined using a time-resolved fluorescence resonance energy transfer (TR-FRET) methodology. 5 nM Recombinant […] kinase, varying concentrations of inhibitor, 2 nM LanthaScreen™ Eu anti-His Antibody and 30 nM Kinase Tracer 236 was incubated in 1× LanthaScreen™ Kinase Buffer A for 5 h. Recombinant BTK^C481S kinase was purchased from SignalChem and all LanthaScreen™ components were purchased from Invitrogen. Measurements were performed in a reaction volume of 30 μL using half-area 96-well assay plates. The TR-FRET signal was read on a plate reader with an excitation wavelength of 340 nm and detection wavelengths of 615 and 665 nm. Binding affinity was determined for each compound by measuring TR-FRET signal at various concentrations of compound and plotting the relative fluorescence units against the inhibitor concentration to estimate the IC50 from log [Inhibitor] vs response using the Variable Slope model in Graphpad prism from Graphpad software (SanDiego, Calif.).

For the next assay, the target named is BTK^WT (Homo sapiens (Human), UniProt Q06187). The assay is described as follows: BTK^WT binding affinity (TR-FRET, LanthaScreen). As to the method: as §1, with “BTK^WT binding” for “BTK^C481S binding”, “methodology. 2.5” for “methodology. 5”, “and 15” for “and 30”, “Recombinant BTK” for “Recombinant BTK^C481S”, “kinase” for “kinase was purchased from SignalChem”
In general terms: TR-FRET usually uses a lanthanide donor and a delayed reading to cut background.

For a further assay, the target named is EGFR (Homo sapiens (Human), UniProt P00533). The assay is described as follows: EGFR binding affinity (TR-FRET, LanthaScreen). The following applies: 5 h incubation. As to the method: EGFR binding affinity was determined using a time-resolved fluorescence resonance energy transfer (TR-FRET) methodology. 2.5 nM Recombinant EGFR, varying concentrations of inhibitor, 2 nM LanthaScreen™ Eu anti-GST Antibody and 3 nM Kinase Tracer 199 was incubated in 1× LanthaScreen™ Kinase Buffer A for 5 h. Recombinant EGFR and all LanthaScreen™ components were purchased from Invitrogen. Measurements were performed in a reaction volume of 30 μL using half-area 96-well assay plates. The TR-FRET signal was read on a plate reader with an excitation wavelength of 340 nm and detection wavelengths of 615 and 665 nm. Binding affinity was determined for each compound by measuring TR-FRET signal at various concentrations of compound and plotting the relative fluorescence units against the inhibitor concentration to estimate the IC50 from log [Inhibitor] vs response using the Variable Slope model in Graphpad prism from Graphpad software (SanDiego, Calif.).

Assay [1] concerns OCI-Ly10 human DLBCL cells. The assay can be described thus: OCI-Ly10 anti-proliferative activity (Resazurin, 72 h). Format: cell-based. The following applies: Homo sapiens, OCI-Ly10, 72 h, read-out: Proliferation OCI-Ly10-IC50. As to the method:
Compounds were assayed for effects on the growth of OCI-Ly10 human DLBCL cells that are dependent on NFκB signalling. OCI-Ly10 cells were grown in suspension in T225 flasks, centrifuged and re-suspended in 2.5% FBS containing media. Cells were then plated at 7.5×10^3 cells per well in 96-well plates in varying concentrations of compound and incubated for 72 h at 37° C. An additional plate of cells to be used as the Day 0 read was seeded without compound addition, Resazurin was added to each well, incubated for 5 h and the fluorescence measured at 590 nm. After 72 h of compound treatment, Resazurin was added to each well of the compound treated plates, incubated for 5 h and the fluorescence measured at 590 nm. The IC50 was then calculated by subtracting the average Day 0 value from each well value from the treated plates, each treatment was then calculated as a percentage of the DMSO control and the percentages plotted against the inhibitor concentration to estimate the IC50 from log [Inhibitor] vs response using the Variable Slope model in Graphpad prism from Graphpad software (SanDiego, Calif.).
(In general: The colour change of resazurin is a common sign of viable cells or microbes.)

[2] abbreviates: TR-FRET binding, 5 h incubation, read-out: BTK^WT IC50.
Where [3] appears, read: Table 6, numeric values, read-out: BTK Binding IC50.

Chain of EGFR (P00533 25-1210): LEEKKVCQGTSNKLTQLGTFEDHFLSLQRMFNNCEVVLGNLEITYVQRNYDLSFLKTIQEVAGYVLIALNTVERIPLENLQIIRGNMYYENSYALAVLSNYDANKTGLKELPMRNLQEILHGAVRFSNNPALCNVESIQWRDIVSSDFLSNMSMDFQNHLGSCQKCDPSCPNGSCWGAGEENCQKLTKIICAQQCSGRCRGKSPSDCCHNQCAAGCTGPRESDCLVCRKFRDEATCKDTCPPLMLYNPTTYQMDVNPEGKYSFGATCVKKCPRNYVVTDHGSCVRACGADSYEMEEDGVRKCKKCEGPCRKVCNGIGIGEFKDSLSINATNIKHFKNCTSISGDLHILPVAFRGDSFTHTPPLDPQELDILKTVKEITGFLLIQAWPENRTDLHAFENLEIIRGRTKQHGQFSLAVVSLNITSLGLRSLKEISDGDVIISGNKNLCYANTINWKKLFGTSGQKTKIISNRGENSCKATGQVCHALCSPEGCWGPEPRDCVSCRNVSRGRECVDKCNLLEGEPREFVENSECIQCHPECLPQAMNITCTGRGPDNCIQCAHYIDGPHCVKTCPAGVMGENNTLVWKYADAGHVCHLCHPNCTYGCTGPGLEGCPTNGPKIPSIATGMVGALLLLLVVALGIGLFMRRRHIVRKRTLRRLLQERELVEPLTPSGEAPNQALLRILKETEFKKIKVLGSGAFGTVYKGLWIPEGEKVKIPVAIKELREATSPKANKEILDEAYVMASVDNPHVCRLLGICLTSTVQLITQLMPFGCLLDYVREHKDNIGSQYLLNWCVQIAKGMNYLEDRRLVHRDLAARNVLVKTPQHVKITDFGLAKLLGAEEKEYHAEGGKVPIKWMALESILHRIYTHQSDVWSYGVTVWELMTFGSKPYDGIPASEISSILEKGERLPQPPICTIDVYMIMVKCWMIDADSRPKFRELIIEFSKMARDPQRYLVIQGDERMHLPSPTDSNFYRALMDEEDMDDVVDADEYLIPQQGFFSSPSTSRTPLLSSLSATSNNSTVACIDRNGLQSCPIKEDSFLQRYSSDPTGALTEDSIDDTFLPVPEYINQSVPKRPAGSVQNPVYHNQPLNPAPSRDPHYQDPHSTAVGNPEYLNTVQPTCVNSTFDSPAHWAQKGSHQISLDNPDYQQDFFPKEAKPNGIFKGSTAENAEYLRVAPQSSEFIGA
Chain of BTK^WT (Q06187 whole entry): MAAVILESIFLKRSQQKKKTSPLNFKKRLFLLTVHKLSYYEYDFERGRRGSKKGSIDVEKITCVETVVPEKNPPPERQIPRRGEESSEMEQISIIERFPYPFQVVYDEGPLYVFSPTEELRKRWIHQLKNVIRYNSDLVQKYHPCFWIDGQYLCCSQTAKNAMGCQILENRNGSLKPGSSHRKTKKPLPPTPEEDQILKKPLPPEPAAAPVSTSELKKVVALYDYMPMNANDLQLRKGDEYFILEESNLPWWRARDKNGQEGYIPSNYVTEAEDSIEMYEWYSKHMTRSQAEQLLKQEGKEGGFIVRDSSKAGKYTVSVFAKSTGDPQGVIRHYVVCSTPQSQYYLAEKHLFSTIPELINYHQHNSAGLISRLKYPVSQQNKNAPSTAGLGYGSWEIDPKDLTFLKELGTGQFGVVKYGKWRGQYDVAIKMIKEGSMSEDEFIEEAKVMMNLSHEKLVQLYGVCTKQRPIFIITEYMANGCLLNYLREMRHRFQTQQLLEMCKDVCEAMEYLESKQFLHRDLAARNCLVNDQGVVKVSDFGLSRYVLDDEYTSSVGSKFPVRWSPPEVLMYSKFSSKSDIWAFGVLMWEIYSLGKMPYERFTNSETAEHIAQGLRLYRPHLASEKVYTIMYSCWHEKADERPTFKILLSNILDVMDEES
Chain of BTK^C481S (Q06187 whole entry C481S): as the sequence (Q06187 whole entry) above, with C481S counted along it

Consider `COc1ccccc1C(=O)NCc1ccc(-c2nn([C@H]3CC[C@@H](C(=O)N(C)C)CC3)c3ncnc(N)c23)cc1` (single isomer, unassigned; isomer 2) [33-isomer 2], for which the IC50 on BTK^C481S and at BTK^WT (setting [2]) was not above 10 nM in each case.

For the compound `Nc1ncnc2c1c(-c1ccc(CNC(=O)c3ccccc3OC(F)(F)F)cc1)nn2C1CCCC1` [Example 6, N-[[4-(4-Amino-1-cyclopentyl-pyrazolo[3,4-d]pyrimidin-3-yl)phenyl]methyl]-2-(trifluoromethoxy)benzamide], the IC50 at EGFR and at BTK^WT (setting [2]) was 100 to 1000 nM each time. Compound `COc1ccccc1C(=O)N(C)Cc1ccc(-c2nn(C3CCCC3)c3ncnc(N)c23)cc1` [Example 17, N-[[4-(4-Amino-1-cyclopentyl-pyrazolo[3,4-d]pyrimidin-3-yl)phenyl]methyl]-2-methoxy-N-methyl-benzamide] displayed an IC50 at EGFR of 1000 to 10000 nM. On to `COc1ccccc1C(=O)NCc1ccc(-c2nn(C3CCC4(CC3)OCCO4)c3ncnc(N)c23)cc1` [Example 19, N-[[4-[4-amino-1-(1,4-dioxaspiro[4.5]decan-8-yl)pyrazolo[3,4-d]pyrimidin-3-yl]phenyl]methyl]-2-methoxy-benzamide], for which the IC50 on BTK^C481S and on BTK^WT (setting [2]) was not above 10 nM in each case. For the compound `N#Cc1cccc(C(=O)NCc2ccc(-c3nn(C4CCCC4)c4ncnc(N)c34)cc2)c1` [Example 20, N-[[4-(4-amino-1-cyclopentyl-pyrazolo[3,4-d]pyrimidin-3-yl)phenyl]methyl]-3-cyano-benzamide], at EGFR, the IC50 lay within 1000 to 10000 nM. At EGFR, `COc1c(C)cccc1C(=O)NCc1ccc(-c2nn(C3CCCC3)c3ncnc(N)c23)cc1` [Example 22, N-[[4-(4-amino-1-cyclopentyl-pyrazolo[3,4-d]pyrimidin-3-yl)phenyl]methyl]-2-methoxy-3-methyl-benzamide] registered an IC50 of 1000 to 10000 nM.

Regarding `COc1ccccc1C(=O)NCc1ccc(-c2nn(C3CCC(C(=O)O)CC3)c3ncnc(N)c23)cc1` (stereo not drawn) [Example 30, 4-[4-amino-3-[4-[[(2-methoxybenzoyl)amino]methyl]phenyl]pyrazolo[3,4-d]pyrimidin-1-yl]cyclohexanecarboxylic acid], the IC50 is not above 10 nM on BTK^C481S, 100 to 1000 nM at EGFR, not above 10 nM at BTK^WT (setting [2]) and 1.4 nM at BTK^WT (setting [3]). On to `COc1ccccc1C(=O)NCc1ccc(-c2nn([C@@H]3CCc4ccccc43)c3ncnc(N)c23)cc1` [Example 56, N-[(4-{4-amino-1-[(1R)-2,3-dihydro-1H-inden-1-yl]-1H-pyrazolo[3,4-d]pyrimidin-3-yl}phenyl)methyl]-2-methoxybenzamide], for which the IC50 was not above 10 nM at BTK^C481S, not above 10 nM at BTK^WT (setting [2]) and 1.2 nM on BTK^WT (setting [3]).

For the compound `COc1ccccc1C(=O)NC1(c2ccc(-c3nn(C4CCCC4)c4ncnc(N)c34)cc2)CC1` [Example 67, N-[1-[4-(4-amino-1-cyclopentyl-pyrazolo[3,4-d]pyrimidin-3-yl)phenyl]cyclopropyl]-2-methoxy-benzamide], the IC50 on BTK^C481S, on EGFR and at BTK^WT (setting [2]) was 1000 to 10000 nM each time.

For the compound `COc1cc2ccccc2cc1C(=O)NCc1ccc(-c2nn(C3CCCC3)c3ncnc(N)c23)cc1` [Example 71, N-[[4-(4-amino-1-cyclopentyl-pyrazolo[3,4-d]pyrimidin-3-yl)phenyl]methyl]-3-methoxy-naphthalene-2-carboxamide], the IC50 on BTK^C481S and on BTK^WT (setting [2]) was 100 to 1000 nM throughout. Consider `Nc1ncnc2c1c(-c1ccc(CNC(=O)c3ccc4ccccc4c3)cc1)nn2C1CCCC1` [Example 72, N-[[4-(4-amino-1-cyclopentyl-pyrazolo[3,4-d]pyrimidin-3-yl)phenyl]methyl]naphthalene-2-carboxamide], for which the IC50 on BTK^WT (setting [2]) is 100 to 1000 nM. For `COc1ccccc1C(=O)NCc1c(F)cc(-c2nn(C3CCCC3)c3ncnc(N)c23)cc1F` [Example 73, N-[[4-(4-amino-1-cyclopentyl-pyrazolo[3,4-d]pyrimidin-3-yl)-2,6-difluoro-phenyl]methyl]-2-methoxy-benzamide], the IC50 at BTK^C481S lay in the range of 10 to 100 nM; on EGFR, 1000 to 10000 nM; at BTK^WT (setting [2]), 100 to 1000 nM.

On to `COc1ccccc1C(=O)NCc1ccc(-c2nn(C(C)C)c3ncnc(N)c23)cc1` [Example 78, N-[[4-(4-amino-1-isopropyl-pyrazolo[3,4-d]pyrimidin-3-yl)phenyl]methyl]-2-methoxy-benzamide], for which the IC50 is not above 10 nM at BTK^C481S, 1000 to 10000 nM on EGFR and not above 10 nM at BTK^WT (setting [2]). `COc1ccccc1C(=O)NCc1ccc(-c2nn(C3CCCC3)c3ncnc(N)c23)c(C)c1` [Example 79, N-[[4-(4-amino-1-cyclopentyl-pyrazolo[3,4-d]pyrimidin-3-yl)-3-methyl-phenyl]methyl]-2-methoxy-benzamide]: the IC50 on BTK^C481S is not above 10 nM; on EGFR, 1000 to 10000 nM; at BTK^WT (setting [2]), not above 10 nM.

Take `CC(C)(C)n1nc(-c2ccc(CNC(=O)c3cc4ccccc4o3)cc2)c2c(N)ncnc21` [Example 81, N-[[4-(4-amino-1-tert-butyl-pyrazolo[3,4-d]pyrimidin-3-yl)phenyl]methyl]benzofuran-2-carboxamide]: the IC50 (at BTK^WT (setting [2]); in assay [1]) was 1000 to 10000 nM each time. On to `Nc1ncnc2c1c(-c1ccc(CNC(=O)c3nc4ccccc4s3)cc1)nn2C1CCCC1` [Example 82, N-[[4-(4-amino-1-cyclopentyl-pyrazolo[3,4-d]pyrimidin-3-yl)phenyl]methyl]-1,3-benzothiazole-2-carboxamide], for which the IC50 at EGFR and at BTK^WT (setting [2]) was more than 10000 nM in each case. `Nc1ncnc2c1c(-c1ccc(CNC(=O)c3cc4ccccc4o3)cc1)nn2C1CCCC1` [Example 83, N-[[4-(4-amino-1-cyclopentyl-pyrazolo[3,4-d]pyrimidin-3-yl)phenyl]methyl]benzofuran-2-carboxamide]: the IC50 at BTK^WT (setting [2]) was more than 10000 nM. Regarding `Nc1ncnc2c1c(-c1ccc(CNC(=O)c3cc4ccccc4s3)cc1)nn2C1CCCC1` [Example 84, N-[[4-(4-amino-1-cyclopentyl-pyrazolo[3,4-d]pyrimidin-3-yl)phenyl]methyl]benzothiophene-2-carboxamide], the IC50 at BTK^WT (setting [2]) fell in the range of 1000 to 10000 nM. On the same count and under the same terms, as for `Nc1ncnc2c1c(-c1ccc(CNC(=O)c3ccc4ccccc4n3)cc1)nn2C1CCCC1` [Example 85, N-[[4-(4-amino-1-cyclopentyl-pyrazolo[3,4-d]pyrimidin-3-yl)phenyl]methyl]quinoline-2-carboxamide], the figure is 1000 to 10000 nM. For `Nc1ncnc2c1c(-c1ccc(CNC(=O)C3CNc4ccccc4O3)cc1)nn2C1CCCC1` (stereo not drawn) [Example 86, N-[[4-(4-Amino-1-cyclopentyl-pyrazolo[3,4-d]pyrimidin-3-yl)phenyl]methyl]-3,4-dihydro-2H-1,4-benzoxazine-2-carboxamide], the IC50 on BTK^C481S and on BTK^WT (setting [2]) was more than 10000 nM each time.

As for `Nc1ncnc2c1c(-c1ccc(CNC(=O)c3cccc4ncoc34)cc1)nn2C1CCCC1` [Example 87, N-[[4-(4-amino-1-cyclopentyl-pyrazolo[3,4-d]pyrimidin-3-yl)phenyl]methyl]-1,3-benzoxazole-7-carboxamide], on BTK^WT (setting [2]), the IC50 was in the range of 1000 to 10000 nM. In turn, `Nc1ncnc2c1c(-c1ccc(CNC(=O)c3cc4ccccc4[nH]3)cc1)nn2C1CCCC1` [Example 88, N-[[4-(4-amino-1-cyclopentyl-pyrazolo[3,4-d]pyrimidin-3-yl)phenyl]methyl]-1H-indole-2-carboxamide] came in with an IC50 on EGFR of 1000 to 10000 nM.
